Values quoted from earlier work, collected in patent publication US20090155335A1, “NON-LEACHING NON-FOULING ANTIMICROBIAL COATINGS” (priority 2007, published 2009).

Test system: methicillin resistant and vancomycin intermediate-resistant Staphylococcus aureus
Conditions: Dacron graft soaked in dermaseptin solution, rat

Question: Which “efficacy of released dermaseptin against resistant S. aureus” value does the source give for dermaseptin here?
Answer: effective
